Patent US20050124591A1, “Use of vitamin Ds to treat kidney disease” (priority 2003, published 2005)

What was measured:
[1] = test system: PAI-1; assay: Western blot of PAI-1 in primary culture of human coronary artery smooth muscle cells; format: cell-based; settings: 24 hr at 37° C.
[2] = test system: renin gene expression; settings: in vitro and in vivo studies, recently found; cited from earlier work
[3] = test system: 24(OH)ase; assay: effect of drugs on the expression of 24(OH)ase; format: cell-based; settings: compared with calcitriol
Protocol: Two observations may be noted in these studies: (1) 100% inhibition of growth was never achieved even at 1 μM of any of the test compound. Confocal microscopy studies confirm that, although these drugs are potent in inducing the translocation of VDR from cytoplasm to nucleus, not all cells respond to VDRAs even after 2 h of exposure, which may explain the <100% inhibition.

[4] = test system: renin gene promoter; assay: renin promoter-luciferase reporter assay; format: cell-based; settings: FIG. 2
Text: (§1) Using an in vitro cell culture system, the activity of paricalcitol to suppress renin gene expression was examined using previously published techniques (1,25-Dihydroxyvitamin D3 is a negative endocrine regulator of the renin-angiotensin system, J. Clin. Invest., July 2002). […] This inhibitory effect is confirmed by renin promoter-luciferase reporter assays, which examine the activity of paricalcitol to suppress renin gene transcription.

[5] = test system: CKD Stage 3 and 4 patients; assay: dipstick proteinuria in three randomized, double-blind, placebo-controlled studies in CKD Stage 3 and 4 patients with SHPT; format: in vivo, human
Protocol: Paricalcitol capsule, a synthetic 3rd generation vitamin D analog, and selective vitamin receptor activator (SVDRA) was evaluated in three randomized, double-blind, placebo-controlled, multicenter studies in CKD Stage 3 and 4 patients with SHPT. Two studies dosed three times a week(TIW), no more often than every other day, and 1 study was conducted with once a day dosing regimen (QD). Data from these three studies were combined and analyzed for the following safety parameters: • Calcium and phosphorus metabolism, kidney function parameters and adverse event profile • Changes in dipstick proteinuria Method: • Randomized, double-blind, placebo controlled, multicenter studies with a Pre-treatment/Washout Phase of 1-4 weeks and a Treatment Phase of 24 weeks • Patients were randomized 1:1 to paricalcitol or placebo • Major entry criteria: • Age≧18 years • CKD patients with eGFR (MDRD formula) 15-60 mL/min/1.73 m^2 • Average of the last 2 iPTH values≧150 pg/mL, all values≧120 pg/mL (iPTH measured by Nichols first generation intact PTH assay) • 2 consecutive serum calcium values between 8.0-10.0 mg/dL, and 2 consecutive serum phosphorus values≦5.2 mg/dL • Spot urinary calcium-to-creatinine ratio<0.2 • Not taking maintenance calcitonin, bisphosphonates or drugs that may affect calcium or bone metabolism. • Not taking glucocorticoids for >14 days within the last 6 months. Concurrent Phosphate Binder Usage
Initial Dose: 2 or 4 mcg for TIW regimen and 1 or 2 mcg for QD regimen
Dose Increment: 2 mcg for TIW regimen and 1 mcg for QD regimen
Dose increases every 4 weeks, dose decreases every 2 weeks or sooner
Changes in proteinuria, measured by automated semiquantitative dipstick testing, were evaluated in 195 CKD Stage 3 and 4 patients. Among them, 43.6% (41/94) of paricalcitol patients and 48.5% (49/101) of placebo patients were diabetic.

[6] = test system: renin mRNA expression; assay: Northern blot analysis of renin mRNA expression in As4.1-hVDR cells; format: cell-based
Text: as §1

Structure (SMILES)	potency in reducing the PAI-1 level [1]	renin gene expression [2]	potency on stimulating the expression of 24(OH)ase [3]	suppression of the activity of the renin gene promoter compared with calcitriol [4]	PAI-1 level [1]	patients who had a decrease in proteinuria ([5]; patients on ACEI/ARB therapy with proteinuria at baseline (22/42), placebo 27% (11/41), p=0.025)	patients who experienced an increase in proteinuria, baseline to final visit ([5]; patients who could have an increase in proteinuria from baseline (18/76), placebo 29% (23/77), p=0.466)	patients who experienced a reduction in proteinuria, baseline to final visit ([5]; patients who had proteinuria at baseline (29/57), placebo 25% (15/61), p=0.004, 24 weeks treatment)	renin mRNA expression ([6]; FIG. 1)	renin-inhibiting activity compared with calcitriol ([6]; FIGS. 1A and B)
C=C1/C(=C\C=C2/CCC[C@]3(C)[C@@H]([C@H](C)CCCC(C)(C)O)CC[C@@H]23)C[C@@H](O)C[C@@H]1O [calcitriol]	equally potent	able to inhibit renin gene expression	–	–	–	–	–	–	–	–
C[C@H](/C=C/[C@H](C)C(C)(C)O)[C@H]1CC[C@H]2/C(=C/C=C3C[C@@H](O)C[C@H](O)C3)CCC[C@]12C [paricalcitol]	equally potent	–	less potent than calcitriol	at least as potent as calcitriol	able to decrease PAI-1 level	52%	24%	51%	dose-dependently inhibits renin mRNA expression	a bit more potent than calcitriol
